Consider 23 compounds from patent publication US10144732B2 (BIOGEN MA INC., priority 2014, dated 2018).

SMILES strings stand for the structures. Several values for one entry are separate records, joined by “and”; a condition that tells them apart may be missing. Equal values may be shown once. Bounds are passed on as bounds.

The assay has as its target T1, Human ATX protein (Homo sapiens, UniProt Q13822).
T1 construct: made in house
The assay can be described thus: ATX biochemical assay (FRET, FS-3 substrate). To be noted: FRET assay, FS-3 2 μM, ATX 1.0 μg/mL, 30 minutes preincubation, 2 hours reaction at room temperature; read-out: IC50. An excerpt: ATX (Autotaxin) is a 125 KDa glycoprotein with lysophospholipase D (LPLD) activity that generates the bioactive lipid lysophosphatidic acid (LPA) from lysophosphatidylcholine (LPC). The ATX biochemical assay utilizes a FRET (fluorescence resonance energy transfer) technology platform. The fluorescence signal of FRET substrate FS-3 is quenched due to intra-molecular FRET of a fluorophore to a non-fluorescing quencher (Ferguson, C. G., et al., Org Lett. 2006 May 11; 8(10): 2023-2026, which is incorporated by reference in its entirety). ATX catalyzes the hydrolysis of the substrate which separates the dabsyl quencher from the fluorescein reporter, which becomes fluorescent. The reaction is monitored by a SpectraMax M5 (Molecular Devices, Sunnyvale, Calif.) with at excitation wavelength 485 nm and emission wavelength […].
Fatty acid free-BSA (Sigma A8806): 10 mg/mL in H2O, stored at 4° C.
2×ATX assay buffer: 100 mM Tris, 280 mM NaCl, 10 mM KCl, 2 mM CaCl2, 2 mM MgCl2, pH 7.4.
Human ATX protein: expressed and purified in house. Stored at −80° C.
Substrate FS-3 (Echelon, L-2000): 100 μg in 77.74 μL H2O (1 mM stock), stored at −20° C.
384-well flat bottom plates—Corning #3575.
Compound dilution—All compounds were provided at 10 mM in 100% DMSO. In the first well, 2 μL of 10 mM compound was added to 78 μL of DMSO (1:40 dilution). In subsequent wells 3-fold dilution (total 10 dilutions) were performed.
1×ATX assay buffer was made up with a final concentration of 1 mg/mL fatty acid free-BSA using 2×ATX assay buffer, 10 mg/ml fatty acid free-BSA and ddH2O.
[…]. The final concentration of ATX in the reaction as 1.0 μg/mL.
2 μL per well of compounds was transferred to provide the desired concentration. The plate was centrifuged, then incubated at room temperature for 30 minutes on the shaker.
FS-3 was diluted with 1×ATX assay buffer to a concentration of FS-3 of 10 μM (5×). Then, 10 μL was added per well to the assay plate. The final concentration of FS-3 in the reaction was 2 μM. The plate was centrifuged. The plate was kept shaking at room temperature for 2 hours. Because FS-3 substrate is light sensitive, plates were kept covered and protected from light.
Fluorescence was measured using SpectraMax M5 (excitation at 485 nm/emission at 538 nm, top read).
In general, IC50 refers to the midpoint of a concentration-inhibition curve. In the case of `O=C(O)C1CCC(CC(=O)N2CCc3c(C(F)(F)F)nn(Cc4cccc(F)c4)c3C2)CC1` (mixture of isomers) [Example 6-1, 4-(2-(1-(3-Fluorobenzyl)-3-(trifluoromethyl)-4,5-dihydro-1H-pyrazolo[3,4-c]pyridin-6(7H)-yl)-2-oxoethyl)cyclohexanecarboxylic acid], the IC50 is ≤ 100 nM. The result for `O=C(O)C1CCC(CC(=O)N2CCc3c(C(F)(F)F)nn(Cc4ccc(C(F)(F)F)cc4)c3C2)CC1` (mixture of isomers) [Example 6-2, 4-(2-Oxo-2-(3-(trifluoromethyl)-1-(4-(trifluoromethyl)benzyl)-4,5-dihydro-1H-pyrazolo[3,4-c]pyridin-6(7H)-yl)ethyl)cyclohexanecarboxylic acid] reads ≤ 100 nM; that for `O=C(O)C1CCC(CC(=O)N2CCc3c(C(F)(F)F)nn(Cc4ccccc4F)c3C2)CC1` (mixture of isomers) [Example 6-3, 4-(2-(1-(2-Fluorobenzyl)-3-(trifluoromethyl)-4,5-dihydro-1H-pyrazolo[3,4-c]pyridin-6(7H)-yl)-2-oxoethyl)cyclohexanecarboxylic acid], ≤ 100 nM. `CC1(C(=O)O)CCC(CC(=O)N2CCc3c(C(F)(F)F)nn(Cc4ccc(Cl)cc4F)c3C2)CC1` (mixture of isomers) [Example 6-5, 4-(2-(1-(4-chloro-2-fluorobenzyl)-3-(trifluoromethyl)-4,5-dihydro-1H-pyrazolo[3,4-c]pyridin-6(7H)-yl)-2-oxoethyl)-1-methylcyclohexanecarboxylic acid]: the IC50 is ≤ 100 nM. The value for `O=C(O)C1CCC(CC(=O)N2CCc3c(C(F)(F)F)nn(Cc4ccc(Cl)cc4F)c3C2)C1` (mixture of isomers) [Example 6-6, 3-(2-(1-(4-Chloro-2-fluorobenzyl)-3-(trifluoromethyl)-4,5-dihydro-1H-pyrazolo[3,4-c]pyridin-6(7H)-yl)-2-oxoethyl)cyclopentanecarboxylic acid] was ≤ 100 nM; that for `O=C(O)C1CCC(CC(=O)N2CCc3c(C(F)(F)F)nn(Cc4ccc(F)cc4)c3C2)C1` (mixture of isomers) [Example 6-7, 3-(2-(1-(4-Fluorobenzyl)-3-(trifluoromethyl)-4,5-dihydro-1H-pyrazolo[3,4-c]pyridin-6(7H)-yl)-2-oxoethyl)cyclopentanecarboxylic acid] was ≤ 100 nM. The result for `O=C(O)C1CC(CC(=O)N2CCc3c(C(F)(F)F)nn(Cc4ccc(Cl)cc4F)c3C2)C1` (mixture of isomers) [Example 6-8, 3-(2-(1-(4-Chloro-2-fluorobenzyl)-3-(trifluoromethyl)-4,5-dihydro-1H-pyrazolo[3,4-c]pyridin-6(7H)-yl)-2-oxoethyl)cyclobutanecarboxylic acid] reads ≤ 100 nM; that for `O=C(O)C1CC(CC(=O)N2CCc3c(C(F)(F)F)nn(Cc4ccc(F)cc4)c3C2)C1` (mixture of isomers) [Example 6-9, 3-(2-(1-(4-Fluorobenzyl)-3-(trifluoromethyl)-4,5-dihydro-1H-pyrazolo[3,4-c]pyridin-6(7H)-yl)-2-oxoethyl)cyclobutanecarboxylic acid], ≤ 100 nM. The result for `O=C(O)C1CC2CCC(C1)C2CC(=O)N1CCc2c(C(F)(F)F)nn(Cc3ccc(Cl)cc3F)c2C1` (mixture of isomers) [Example 6-10, 8-(2-(1-(4-Chloro-2-fluorobenzyl)-3-(trifluoromethyl)-4,5-dihydro-1H-pyrazolo[3,4-c]pyridin-6(7H)-yl)-2-oxoethyl)bicyclo[3.2.1]octane-3-carboxylic acid] reads ≤ 100 nM; that for `CC1(C)C(CC(=O)N2CCc3c(C(F)(F)F)nn(Cc4ccc(Cl)cc4F)c3C2)CC1C(=O)O` (mixture of isomers) [Example 6-14, 3-(2-(1-(4-Chloro-2-fluorobenzyl)-3-(trifluoromethyl)-4,5-dihydro-1H-pyrazolo[3,4-c]pyridin-6(7H)-yl)-2-oxoethyl)-2,2-dimethylcyclobutanecarboxylic acid], ≤ 100 nM; that for `CC1(C)C(CC(=O)N2CCc3c(C(F)(F)F)nn(Cc4ccc(F)cc4)c3C2)CC1C(=O)O` (mixture of isomers) [Example 6-15, 3-(2-(1-(4-Fluorobenzyl)-3-(trifluoromethyl)-4,5-dihydro-1H-pyrazolo[3,4-c]pyridin-6(7H)-yl)-2-oxoethyl)-2,2-dimethylcyclobutanecarboxylic acid], ≤ 100 nM. As to `O=C(O)C1CCC(CC(=O)N2CCc3c(C(F)(F)F)nn(CC4CCCCC4)c3C2)CC1` (single isomer, unassigned) [Example 7-13, 4-(2-(1-(cyclohexylmethyl)-3-(trifluoromethyl)-4,5-dihydro-1H-pyrazolo[3,4-c]pyridin-6(7H)-yl)-2-oxoethyl)cyclohexanecarboxylic acid], the IC50 was ≤ 100 nM. Take `O=C(O)C1CCC(CC(=O)N2CCc3cnn(Cc4ccc(F)cc4)c3C2)CC1` (single isomer, unassigned) [Example 7-15, 4-(2-(1-(4-Fluorobenzyl)-4,5-dihydro-1H-pyrazolo[3,4-c]pyridin-6(7H)-yl)-2-oxoethyl)cyclohexanecarboxylic acid]: the IC50 is ≤ 100 nM. The result for `O=C(O)C1CCC(CC(=O)N2CCc3c(C(F)(F)F)nn(-c4ccccc4)c3C2)CC1` (stereo in doubt) [Example 5-21, cis-4-(2-Oxo-2-(1-phenyl-3-(trifluoromethyl)-4,5-dihydro-1H-pyrazolo[3,4-c]pyridin-6(7H)-yl)ethyl)cyclohexanecarboxylic acid] reads > 500 nM and ≤ 10000 nM; that for `N#Cc1ccc(Cn2nc(C(F)(F)F)c3c2CN(C(=O)C[C@H]2CC[C@@H](C(=O)O)CC2)CC3)cc1` (stereo in doubt) [Example 5-35, cis-4-(2-(1-(4-Cyanobenzyl)-3-(trifluoromethyl)-4,5-dihydro-1H-pyrazolo[3,4-c]pyridin-6(7H)-yl)-2-oxoethyl)cyclohexanecarboxylic acid], ≤ 100 nM.

For `CCOC(=O)C1CCC(CC(=O)N2CCc3c(C(F)(F)F)nn(Cc4ccc(F)cc4)c3C2)CC1` (centres unmarked) [Example 1-1, Ethyl 4-(2-(1-(4-fluorobenzyl)-3-(trifluoromethyl)-4,5-dihydro-1H-pyrazolo[3,4-c]pyridin-6 (7H)-yl)-2-oxoethyl)cyclohexanecarboxylate], the IC50 is ≤ 100 nM.

Regarding `CN1CCC(CC(=O)N2CCc3c(C(F)(F)F)nn(Cc4ccc(Cl)cc4F)c3C2)CC1` [Example 1-2, 1-(1-(4-Chloro-2-fluorobenzyl)-3-(trifluoromethyl)-4,5-dihydro-1H-pyrazolo[3,4-c]pyridin-6(7H)-yl)-2-(1-methylpiperidin-4-yl)ethanone], the IC50 was ≤ 100 nM. The value for `O=C(Cc1ccccc1)N1CCc2c(C(F)(F)F)nn(Cc3ccc(Cl)cc3F)c2C1` [Example 1-3, 1-(1-(4-Chloro-2-fluorobenzyl)-3-(trifluoromethyl)-4,5-dihydro-1H-pyrazolo[3,4-c]pyridin-6(7H)-yl)-2-phenylethanone] was ≤ 100 nM.

For `CCOC(=O)C1CCC(CC(=O)N2CCc3cnn(Cc4ccc(Cl)cc4F)c3C2)CC1` (centres unmarked) [Example 1-4, Ethyl 4-(2-(1-(4-chloro-2-fluorobenzyl)-4,5-dihydro-1H-pyrazolo[3,4-c]pyridin-6(7H)-yl)-2-oxoethyl)cyclohexanecarboxylate], the IC50 was ≤ 100 nM. Consider `O=C(CC1CCCCC1)N1CCc2c(C(F)(F)F)nn(Cc3ccc(Cl)cc3F)c2C1` [Example 1-5, 1-(1-(4-Chloro-2-fluorobenzyl)-3-(trifluoromethyl)-4,5-dihydro-1H-pyrazolo[3,4-c]pyridin-6(7H)-yl)-2-cyclohexylethanone], for which the IC50 is ≤ 100 nM. The result for `O=C(C1CCCCC1)N1CCc2c(C(F)(F)F)nn(Cc3ccc(Cl)cc3F)c2C1` [Example 1-6, (1-(4-Chloro-2-fluorobenzyl)-3-(trifluoromethyl)-4,5-dihydro-1H-pyrazolo[3,4-c]pyridin-6(7H)-yl) (cyclohexyl)methanone] reads > 10000 nM; that for `O=C(Cc1ccncc1)N1CCc2c(C(F)(F)F)nn(Cc3ccc(Cl)cc3F)c2C1` [Example 1-7, 1-(1-(4-Chloro-2-fluorobenzyl)-3-(trifluoromethyl)-4,5-dihydro-1H-pyrazolo[3,4-c]pyridin-6(7H)-yl)-2-(pyridin-4-yl)ethanone], > 10000 nM; that for `CCOC(=O)C1CCC(CC(=O)N2CCc3c(C(F)(F)F)nn(Cc4ccc(Cl)cc4)c3C2)CC1` (centres unmarked) [Example 1-8, Ethyl 4-(2-(1-(4-chlorobenzyl)-3-(trifluoromethyl)-4,5-dihydro-1H-pyrazolo[3,4-c]pyridin-6(7H)-yl)-2-oxoethyl)cyclohexanecarboxylate], ≤ 100 nM.
